Source: PMC5566973 (Frontiers in Pharmacology, 2017)

How the values were obtained:
in vitro = experiment: in vitro
Description: (§1) Caco-2, MDCK and MDCK-MRP2 cells were donated by Prof. Yan Xie and Yueming Ma from Shanghai University of Traditional Chinese Medicine. The cells were grown in culture dishes (Corning® Costar, Cambridge, MA, USA) using DMEM supplemented with 10% FBS, 1% NEAA and 1% penicillin-streptomycin solution. The cells were cultured in 5% CO2 and […] with 90% relative humidity at 37°C. The medium was replaced every other day during incubation. The cells were passaged every 3–4 days between 70 and 80% confluence at a 1:5 split ratio using 0.25% trypsin-EDTA. For the transport experiments, the cells from passages between 30 and 45 were seeded at 1 × 10^5 cells/cm^2 onto permeable polycarbonate inserts (0.45 μm pore size, seeding surface of 0.6 cm^2, Millipore, MA, USA) in 24-well plastic plates. The media in the culture plates were changed every other day for the first week after seeding and were replaced daily afterward. […] The cells were used for the transport experiments 21–28 (Caco-2) or 5–7 (MDCK and MDCK-MRP2) days after seeding, and only monolayers with a TEER-value above 420 Ω cm^2 were used during the studies.
(§2) The apical (AP) and basolateral (BL) sides are typical of polarized Caco-2, MDCK and MDCK-MRP2 epithelial cells. Before the experiments, the polarized cell monolayers were washed twice with warm HBSS solution and subsequently preincubated (37°C, 30 min). Afterward, HBSS solution on both sides of the cell monolayers was removed using a mini desktop vacuum pump. […] The final DMSO concentration in the HBSS or drug mixture was below 0.5%. The monolayers were incubated at 37°C, and 100 μL samples were taken at 30, 60, 90, and 120 min from the acceptor compartment and immediately replaced with the same volume of prewarmed fresh blank HBSS. TEER measurements for assessing the membrane integrity took place before and after the experiments.
(§3) The apparent permeability coefficients (Papp) and ER were calculated as Equations (2) and (3): […]
(§4) where dQ/dt is the steady-state flux, A is the membrane surface area, and C0 is the initial drug concentration in the donor compartment. PappBA is the Papp-value measured in BL to AP direction and PappAB is the Papp-value measured in AP to BL direction. It indicated the involvement of an active transport process when the ER-value is above 1.5 (Hubatsch et al., [2007]).

[1] = system: ATP (adenosine triphosphate); experiment: in vitro; conditions: human, Caco-2, PappAB
Description: as §1, §2, §3, §4

BCRP = experiment: in vitro; conditions: human, Caco-2, PappAB
Description: as §1, §2, §3, §4

Caco-2 cell monolayers = experiment: in vitro
Description: as §1, §2, §3, §4

MDCK cell monolayers = experiment: in vitro
Description: as §1, §2, §3, §4

MDR1 = experiment: in vitro; conditions: human, Caco-2, PappBA, Caco-2, 2 μM
Description: as §1, §2, §3, §4

MRP2 = experiment: in vitro; conditions: human, Caco-2, PappAB
Description: as §1, §2, §3, §4

Na+/K+-ATPase = experiment: in vitro; conditions: human
Description: as §1, §2, §3, §4

OATPs = experiment: in vitro; conditions: human, Caco-2, PappAB
Description: as §1, §2, §3, §4

OATs = experiment: in vitro; conditions: human, Caco-2, PappBA, Caco-2, 2 μM, + Cimetidine 0.05 mM (OATs)
Description: as §1, §2, §3, §4

PEPT1 = experiment: in vitro; conditions: human, Caco-2, PappAB
Description: as §1, §2, §3, §4

[2] = Caco-2, 2 μM, + Apigenin 0.025 mM (BCRP)
[3] = Caco-2, 2 μM, + ES 0.05 mM (OATPs)
[4] = Caco-2, 2 μM, + Gly-Sar 10 mM (PEPT1)
[5] = Caco-2, 2 μM, + Ko143 0.01 mM (BCRP)
[6] = Caco-2, 2 μM, + MK571 0.05 mM (MRP2)
[7] = Caco-2, 2 μM, + NaN3 10 mM (ATP)
[8] = Caco-2, 2 μM, + Phloretin 0.3 mM (MCTs)
[9] = Caco-2, 2 μM, + Phloridzin 0.5 mM (SGLT1)
[10] = Caco-2, 2 μM, + Probenecid 0.2 mM (MRP2)
[11] = Caco-2, 2 μM, + TEA 5 mM (OCTs/OCTNs)
[12] = Caco-2, 2 μM, Control (no inhibitor or substrate)

`COc1ccc2c(c1)[nH]c1c(C)nccc12` [Harmine] gave a Papp A→B (in vitro; dog, MDCK, PappAB, initial concentration 1 μM) of 3.7 ± 0.14 ×10⁻⁶ cm/s, a Papp A→B (in vitro; dog, MDCK, PappAB, initial concentration 2 μM) of 4.6 ± 0.25 ×10⁻⁶ cm/s and a Papp A→B (in vitro; dog, MDCK, PappAB, initial concentration 5 μM) of 7.11 ± 0.89 ×10⁻⁶ cm/s. For the same molecule, the Papp B→A (in vitro; dog, MDCK, PappBA, initial concentration 1 μM) was 5.81 ± 0.19 ×10⁻⁶ cm/s, the Papp B→A (in vitro; dog, MDCK, PappBA, initial concentration 2 μM) was 7.32 ± 0.19 ×10⁻⁶ cm/s and the Papp B→A (in vitro; dog, MDCK, PappBA, initial concentration 5 μM) was 11.6 ± 0.15 ×10⁻⁶ cm/s. It also gave a Papp A→B (in vitro; dog, MDCK, pH 5.5, PappAB, 2 μM, pH 5.5) of 2.24 ± 0.29 ×10⁻⁶ cm/s, a Papp B→A (in vitro; dog, MDCK, pH 5.5, PappBA, 2 μM, pH 5.5) of 3.42 ± 0.48 ×10⁻⁶ cm/s and a Papp A→B (in vitro; human, Caco-2, PappAB, Caco-2, 2 μM, 4°C) of 1.58 ± 0.57 ×10⁻⁶ cm/s. It also gave a Papp A→B (in vitro; human, Caco-2, PappAB, Caco-2, initial concentration 1 μM) of 15.1 ± 0.73 ×10⁻⁶ cm/s, a Papp A→B (in vitro; human, Caco-2, PappAB, Caco-2, initial concentration 2 μM) of 18.8 ± 1.26 ×10⁻⁶ cm/s and a Papp A→B (in vitro; human, Caco-2, PappAB, Caco-2, initial concentration 5 μM) of 31.1 ± 1.42 ×10⁻⁶ cm/s. The Papp B→A (in vitro; human, Caco-2, PappBA, Caco-2, 2 μM, 4°C) was 2.41 ± 0.85 ×10⁻⁶ cm/s, the Papp B→A (in vitro; human, Caco-2, PappBA, Caco-2, initial concentration 1 μM) was 22.8 ± 0.25 ×10⁻⁶ cm/s and the Papp B→A (in vitro; human, Caco-2, PappBA, Caco-2, initial concentration 2 μM) was 29.3 ± 1.21 ×10⁻⁶ cm/s. The Papp B→A (in vitro; human, Caco-2, PappBA, Caco-2, initial concentration 5 μM) was 48.3 ± 2.81 ×10⁻⁶ cm/s, the Papp A→B (in vitro; human, Caco-2, pH 5.5, PappAB, Caco-2, 2 μM, pH 5.5) was 5.27 ± 0.29 ×10⁻⁶ cm/s and the Papp B→A (in vitro; human, Caco-2, pH 5.5, PappBA, Caco-2, 2 μM, pH 5.5) was 4.17 ± 1.03 ×10⁻⁶ cm/s. The Papp A→B [1] was 14.1 ± 0.39 ×10⁻⁶ cm/s, the Papp A→B (BCRP) was 19 ± 3.67 ×10⁻⁶ cm/s and the PappAB (Caco-2 cell monolayers; Caco-2, 2 μM, 4°C) was 1.58 ± 0.57 1 × 10^−6 cm/s. For the same molecule, the Modulatory effect (Caco-2 cell monolayers; [2]) was “−”, the PappBA (Caco-2 cell monolayers; [2]) was 28.40 ± 4.27 1 × 10^−6 cm/s and the Modulatory effect (Caco-2 cell monolayers; Caco-2, 2 μM, + Cimetidine 0.05 mM (OATs)) was “−”. The Modulatory effect (Caco-2 cell monolayers; [3]) was “+”, the PappAB (Caco-2 cell monolayers; [3]) was 14.64 ± 1.31 1 × 10^−6 cm/s and the PappBA (Caco-2 cell monolayers; [3]) was 28.43 ± 1.89 1 × 10^−6 cm/s. The Modulatory effect (Caco-2 cell monolayers; [4]) was “−”, the PappBA (Caco-2 cell monolayers; [4]) was 27.86 ± 1.96 1 × 10^−6 cm/s and the Modulatory effect (Caco-2 cell monolayers; [5]) was “−”. For the same molecule, the PappBA (Caco-2 cell monolayers; [5]) was 27.96 ± 3.86 1 × 10^−6 cm/s, the Modulatory effect (Caco-2 cell monolayers; [6]) was “+” and the PappBA (Caco-2 cell monolayers; [6]) was 29.36 ± 2.73 1 × 10^−6 cm/s. The Modulatory effect (Caco-2 cell monolayers; [7]) was “+”, the PappBA (Caco-2 cell monolayers; [7]) was 27.94 ± 1.76 1 × 10^−6 cm/s and the Modulatory effect (Caco-2 cell monolayers; [8]) was “−”. For the same molecule, the PappBA (Caco-2 cell monolayers; [8]) was 27.37 ± 2.13 1 × 10^−6 cm/s, the Modulatory effect (Caco-2 cell monolayers; [9]) was “−” and the PappBA (Caco-2 cell monolayers; [9]) was 29.39 ± 1.30 1 × 10^−6 cm/s. For the same molecule, the Modulatory effect (Caco-2 cell monolayers; [10]) was “+”, the PappBA (Caco-2 cell monolayers; [10]) was 27.93 ± 2.33 1 × 10^−6 cm/s and the Modulatory effect (Caco-2 cell monolayers; Caco-2, 2 μM, + Quinidine 0.1 mM (MDR1)) was “−”. The Modulatory effect (Caco-2 cell monolayers; Caco-2, 2 μM, + Sodium vanadate 0.05 mM (Na^+)) was “+”, the Modulatory effect (Caco-2 cell monolayers; [11]) was “+” and the PappBA (Caco-2 cell monolayers; [11]) was 28.05 ± 1.20 1 × 10^−6 cm/s. The Modulatory effect (Caco-2 cell monolayers; Caco-2, 2 μM, + Verapamil 0.1 mM (MDR1)) was “−”, the PappAB (Caco-2 cell monolayers; [12]) was 18.52 ± 2.06 1 × 10^−6 cm/s and the PappBA (Caco-2 cell monolayers; [12]) was 29.40 ± 1.38 1 × 10^−6 cm/s. For the same molecule, the PappBA (Caco-2 cell monolayers; Caco-2, 2 μM, Control (pH 7.4, 37°C, without EDTA)) was 29.34 ± 1.21 1 × 10^−6 cm/s, the PappBA (Caco-2 cell monolayers; Caco-2, 2 μM, with EDTA 5 mM) was 29.67 ± 2.22 1 × 10^−6 cm/s and the “increase of PappAB” value (Caco-2 cell monolayers; Caco-2, + MK571 vs control) was 1.62 folds. The “increase of PappAB” value (Caco-2 cell monolayers; Caco-2, + probenecid vs control) was 1.27 folds, the “ER-values at the tested concentrations” value (Caco-2 cell monolayers; Caco-2 and MDCK, 1, 2, and 5 μM) was > 1.5 and the PappAB (Caco-2 cell monolayers; human, Caco-2) was 24.11 ± 2.53^* 1 × 10^−6 cm/s. The PappAB (Caco-2 cell monolayers; human, Caco-2, pH 7.4) was 18.78 ± 1.26 1 × 10^−6 cm/s, the PappAB (MDCK cell monolayers; 2 μM, 4°C) was 1.85 ± 0.55^*** 1 × 10^−6 cm/s and the PappAB (MDCK cell monolayers; 2 μM, Control (pH 7.4, 37°C, without EDTA)) was 4.60 ± 0.25 1 × 10^−6 cm/s. The PappAB (MDCK cell monolayers; 2 μM, with EDTA 5 mM) was 7.47 ± 1.31^* 1 × 10^−6 cm/s, the PappBA (MDCK cell monolayers; 2 μM, with EDTA 5 mM) was 8.98 ± 0.90 1 × 10^−6 cm/s and the PappAB (MDCK cell monolayers; 2 μM, with EDTA 5 mM, listed as harmine) was 7.47 ± 1.31 1 × 10^−6 cm/s. The PappBA (MDCK cell monolayers; dog, pH 7.4) was 7.32 ± 0.19 1 × 10^−6 cm/s, the Papp B→A (MDR1; + Quinidine 0.1 mM (MDR1)) was 29 ± 3.96 ×10⁻⁶ cm/s and the Papp B→A (MDR1; + Verapamil 0.1 mM (MDR1)) was 28.5 ± 3.77 ×10⁻⁶ cm/s. For the same molecule, the Papp A→B (MRP2) was 29.9 ± 2.14 ×10⁻⁶ cm/s, the Papp A→B (Na+/K+-ATPase; Caco-2, PappAB) was 13.1 ± 0.93 ×10⁻⁶ cm/s and the Papp B→A (Na+/K+-ATPase; Caco-2, PappBA, Caco-2, 2 μM, + Sodium vanadate 0.05 mM (Na^+)) was 26.2 ± 1.78 ×10⁻⁶ cm/s. It also gave a Papp A→B (OATPs) of 14.6 ± 1.31 ×10⁻⁶ cm/s, a Papp B→A (OATs) of 27.6 ± 1.54 ×10⁻⁶ cm/s and a Papp A→B (PEPT1) of 18.3 ± 1.28 ×10⁻⁶ cm/s.
